Experiments:
Assay in all cases: relative viability (nuclei count vs DMSO), 5 days (fraction); higher = more cells survive
[1] = compound: O=C(O)c1ccc2c(c1)nc(Nc1cccc(Cl)c1)c1ccncc12 [Silmitasertib] + C[C@]1(O)C[C@@H](c2nc(-c3ccc4ccc(-c5ccccc5)nc4c3)c3c(N)nccn32)C1 [Linsitinib] (partner 1 µM)
In short: (§1)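 Each reported value is a median over duplicate plates. It expresses relative viability: treated-well nuclei count divided by vehicle-well nuclei count. Lung cancer cell lines in 1536-well plates were dosed by pin tool a day after seeding, alone with one drug or with a fixed anchor-drug dose plus five library-drug doses (not always all listed) in √10 steps, and nuclei were counted after 5 days.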

[2] = compound: O=C(O)c1ccc2c(c1)nc(Nc1cccc(Cl)c1)c1ccncc12 [Silmitasertib] + CC(C)C[C@H](NC(=O)[C@H](Cc1ccccc1)NC(=O)c1cnccn1)B(O)O [Bortezomib] (partner 0.002 µM)
In short: as §1

[3] = compound: O=C(O)c1ccc2c(c1)nc(Nc1cccc(Cl)c1)c1ccncc12 [Silmitasertib] + Nc1nc2[nH]cc(CCc3ccc(C(=O)N[C@@H](CCC(=O)O)C(=O)O)cc3)c2c(=O)[nH]1 [Pemetrexed] (partner 0.2 µM)
In short: as §1

[4] = compound: O=C(O)c1ccc2c(c1)nc(Nc1cccc(Cl)c1)c1ccncc12 [Silmitasertib] + N=C(N)NC(=N)NCCc1ccccc1 [Phenformin] (partner 250 µM)
In short: as §1

[5] = compound: O=C(O)c1ccc2c(c1)nc(Nc1cccc(Cl)c1)c1ccncc12 [Silmitasertib] + Cc1cc(Nc2cc(N3CCN(C)CC3)nc(Sc3ccc(NC(=O)C4CC4)cc3)n2)n[nH]1 [Tozasertib] (partner 0.1 µM)
In short: as §1

Cell Line	relative viability ([1]; first compound 0.04 µM)	relative viability ([1]; first compound 0.4 µM)	relative viability ([1]; first compound 1.265 µM)	relative viability ([1]; first compound 4 µM)	relative viability ([2]; first compound 0.04 µM)	relative viability ([2]; first compound 0.4 µM)	relative viability ([2]; first compound 1.265 µM)	relative viability ([2]; first compound 4 µM)	relative viability ([3]; first compound 0.04 µM)	relative viability ([3]; first compound 0.4 µM)	relative viability ([3]; first compound 1.265 µM)	relative viability ([3]; first compound 4 µM)	relative viability ([4]; first compound 0.04 µM)	relative viability ([4]; first compound 0.4 µM)	relative viability ([4]; first compound 1.265 µM)	relative viability ([4]; first compound 4 µM)	relative viability ([5]; first compound 0.04 µM)	relative viability ([5]; first compound 0.4 µM)	relative viability ([5]; first compound 1.265 µM)	relative viability ([5]; first compound 4 µM)
NCI-H1651	0.944	1	0.901	0.942	0.957	0.894	1.02	0.934	0.625	0.38	0.247	0.665	0.339	0.321	0.378	0.363	0.785	0.556	0.541	0.443
HARA	1.1	0.753	0.77	0.729	1.12	0.812	0.949	0.766	0.268	0.215	0.213	0.235	0.439	0.253	0.448	0.162	0.107	0.0804	0.0797	0.0693
H3255	1.09	0.944	0.903	0.991	0.937	0.848	0.741	0.36	0.602	0.5	0.394	0.499	0.355	0.353	0.31	0.359	0.756	0.593	0.678	0.59
NCI-H441	0.455		0.389	0.35	0.514		0.496	0.17	0.289		0.245	0.281	0.692		0.739	0.335	0.61		0.512	0.472
CAL-12T	0.93	0.826	0.652	0.475	1.12	0.949	0.777	0.709	1.35	1.06	0.889	0.818	0.67	0.488	0.352	0.296	0.292	0.282	0.227	0.175
NCI-H1437	1.03		0.691	0.36	0.594		0.384	0.474	0.337	0.3	0.254	0.228	0.327	0.334	0.305	0.278	0.397	0.406	0.3	0.241
HOP-62	0.973		0.998	0.703	0.504		0.425	0.486	0.281		0.269	0.301	0.624		0.662	0.608	0.4		0.341	0.296
EPLC-272H	1.31		0.84	0.862	0.906		0.573	0.491	0.374	0.359	0.385	0.122	0.399		0.23	0.088	0.215		0.205	0.187
COR-L 105	0.977	0.82	0.92	0.574	0.803	0.708	0.64	0.414	1.05	1.19	0.951	0.785	0.476	0.458	0.408	0.307	0.394	0.349	0.389	0.326
HCC-366	0.869		0.366	0.379	1.1		0.995	0.482	0.13	0.162	0.175	0.128	0.698	0.42	0.6	0.24	0.107	0.0962	0.0628	0.0717
HCC-44	0.7	0.673	0.665	0.691	0.858	0.753	0.883	0.49	0.63	0.667	0.71	0.661	0.267	0.234	0.117	0.12	1.13	0.853	0.802	0.691
NCI-H2009	1.27	1.2	1.16	0.77	1.14	0.545	0.944	0.463	1.09	0.98	1.13	0.908	0.542	0.487	0.374	0.312	0.817	0.839	0.719	0.474
NCI-H23	0.662		0.448	0.582	1.01		0.782	0.706	0.779	0.389	0.57	0.303	0.639		0.675	0.403	0.427		0.223	0.188
NCI-H1355	0.857		0.768	0.796	1.27		1.16	0.929	1.04		1.01	0.852	0.457		0.46	0.43	0.545		0.528	0.46
NCI-H2023	0.741	0.62	0.532	0.472	1.13	0.557	0.946	0.282	0.278	0.187	0.266	0.21	0.455	0.38	0.374	0.34	0.46	0.321	0.24	0.252
NCI-H2087	0.991	0.75	0.608	0.408	0.737	0.656	0.657	0.421	0.604	0.64	0.665	0.542	0.515		0.431	0.223	0.264		0.152	0.132
NCI-H838	1.09		0.899	0.608	1.15		0.759	0.66	0.231	0.234	0.227	0.213	0.708		0.513	0.362	0.289		0.257	0.222

Source: the supplement of paper PMC10307832
